We go through eight compounds from ChEMBL document CHEMBL1201862, “PubChem BioAssay data set” (2004).

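Tested at 5 concentrations; 48 h exposure; 96-well plates; endpoints linearly interpolated, else capped at highest concentration. The concentration for 50% growth inhibition is given as GI50.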 Calls of active or inactive are those of the source. Cut-off read from the data, not from the text of the source: active = GI50 up to about 1.1 µM and inactive = higher.

Some test systems named below: MDA-MB-231; DU-145; NCI-H460; MDA-MB-435; T47D; Malme-3M; HL-60; UO-31; IGROV-1; SN12C; Hs-578T; OVCAR-5; SF-295; NCI-H23; UACC-257; HCT-15; OVCAR-4; HOP-92; NCI-H522.
Common to all, as to test: growth of human tumour cells (NCI), 48 h

In the case of `O=C(O)c1ccc(C(=O)c2ccccc2C(=O)O)cc1C(=O)O`, the GI50 with MDA-MB-231, in the experiment on DU-145, in the experiment on NCI-H460, in the experiment on MDA-MB-435, in the experiment with T47D and in the experiment with Malme-3M was > 100 µM (inactive) in each case. For the same compound, the GI50 in the experiment with HL-60 is > 76.9 µM (inactive); with UO-31, > 100 µM (inactive); in the experiment with IGROV-1, > 100 µM (inactive); in the experiment on SN12C it was > 100 µM (inactive); with Hs-578T, > 100 µM (inactive); in the experiment on OVCAR-5 it was > 100 µM (inactive). The GI50 in the experiment on SF-295 was > 100 µM (inactive); in the experiment on NCI-H23, > 100 µM (inactive); with UACC-257, > 100 µM (inactive); in the experiment on HCT-15, > 100 µM; in the experiment on OVCAR-4, > 100 µM (inactive); in the experiment on HOP-92 it was > 100 µM (inactive). The GI50 with NCI-H522 is > 100 µM (inactive).
`O=C(O)C1Cc2c([nH]c3ccccc23)C(CCCCO)N1` (configuration not stated): the GI50 in the experiment on MDA-MB-231, with DU-145, with NCI-H460, in the experiment on MDA-MB-435, with T47D and with Malme-3M was > 100 µM (inactive) in each case. For the same compound, the GI50 in the experiment with HL-60, in the experiment on UO-31, with IGROV-1, with SN12C, with Hs-578T and in the experiment on OVCAR-5 was > 100 µM (inactive) each time. Besides, the GI50 in the experiment with SF-295 was > 100 µM (inactive); in the experiment with NCI-H23, > 100 µM (inactive); with UACC-257 it was > 100 µM (inactive); in the experiment on HCT-15, > 100 µM; in the experiment on OVCAR-4, > 100 µM (inactive); in the experiment with HOP-92, > 100 µM (inactive). Besides, the GI50 in the experiment with NCI-H522 is > 100 µM (inactive).
`Oc1cccc(-c2cn3cc(C(F)(F)F)ccc3n2)c1`: the GI50 in the experiment with MDA-MB-231 was 43.7 µM (inactive); in the experiment on DU-145, 18.6 µM (inactive); in the experiment on NCI-H460, 26.1 µM (inactive); with MDA-MB-435 it was 32 µM (inactive); in the experiment with T47D, 2.39 µM (inactive); with Malme-3M, 27.9 µM (inactive). Moreover, the GI50 is 32.6 µM (inactive) in the experiment on HL-60; 0.338 µM (active) in the experiment on UO-31; 20.4 µM (inactive) in the experiment with IGROV-1; 47.9 µM (inactive) with SN12C; 74.6 µM (inactive) with Hs-578T; 37.2 µM (inactive) in the experiment on OVCAR-5. Moreover, the GI50 is 24.5 µM (inactive) in the experiment on SF-295; 42.7 µM (inactive) in the experiment with NCI-H23; 22.9 µM (inactive) in the experiment on UACC-257; 29.2 µM in the experiment with HCT-15; 22.1 µM (inactive) in the experiment with OVCAR-4; 55.2 µM (inactive) with HOP-92. In the experiment on NCI-H522, the GI50 is 13.5 µM (inactive).
Regarding `NS(=O)(=O)c1ccc(NC(=O)c2ccc3nc4ccccc4c(Nc4ccc(S(N)(=O)=O)cc4)c3c2)cc1`, the GI50 is > 100 µM (inactive) in the experiment with MDA-MB-231; > 100 µM (inactive) with DU-145; 8.75 µM (inactive) with NCI-H460; > 100 µM (inactive) with MDA-MB-435; > 100 µM (inactive) in the experiment with T47D; > 100 µM (inactive) in the experiment with Malme-3M. In addition, the GI50 in the experiment with HL-60, in the experiment on UO-31, with IGROV-1, with SN12C, in the experiment with Hs-578T and with OVCAR-5 was > 100 µM (inactive) each time. Further, the GI50 was > 100 µM (inactive) in the experiment on SF-295; > 100 µM (inactive) in the experiment on NCI-H23; > 100 µM (inactive) in the experiment on UACC-257; > 100 µM with HCT-15; > 100 µM (inactive) with OVCAR-4; > 100 µM (inactive) in the experiment on HOP-92. Further, in the experiment with NCI-H522, the GI50 was > 100 µM (inactive).
Regarding `CC(=O)N1C(OCc2ccccc2)CCN1c1ccccc1` (configuration not stated), the GI50 in the experiment on MDA-MB-231, in the experiment on DU-145, with NCI-H460, in the experiment with MDA-MB-435, with T47D and with Malme-3M was > 10 µM (inactive) throughout. Moreover, the GI50 in the experiment on HL-60, in the experiment with UO-31, with IGROV-1, in the experiment with SN12C, in the experiment with Hs-578T and with OVCAR-5 was > 10 µM (inactive) each time. Also, the GI50 in the experiment with SF-295 is > 10 µM (inactive); with NCI-H23 it was > 10 µM (inactive); in the experiment with UACC-257, > 10 µM (inactive); with HCT-15, > 10 µM; with OVCAR-4, > 10 µM (inactive); in the experiment on HOP-92, 3.29 µM (inactive). Besides, the GI50 in the experiment on NCI-H522 is > 10 µM (inactive).
Take `N#CC(c1ccnc(Cl)n1)c1nc2ccccc2s1` (configuration not stated): the GI50 in the experiment with MDA-MB-231 was 2.91 µM (inactive); with DU-145, 19.6 µM (inactive); in the experiment with NCI-H460, 3.61 µM (inactive); in the experiment on MDA-MB-435 it was 3.92 µM (inactive); with T47D, 4.19 µM (inactive); with Malme-3M it was 2.7 µM (inactive). Further, the GI50 with HL-60 was 1.17 µM (inactive); in the experiment on UO-31 it was 4.07 µM (inactive); in the experiment on IGROV-1, 3.65 µM (inactive); with SN12C, 2.87 µM (inactive); in the experiment with Hs-578T, 7.74 µM (inactive); in the experiment on OVCAR-5, 9.53 µM (inactive). The GI50 in the experiment on SF-295 was 8.49 µM (inactive); in the experiment on NCI-H23 it was 2.48 µM (inactive); with UACC-257 it was 6.19 µM (inactive); in the experiment on HCT-15 it was 3.44 µM; in the experiment on OVCAR-4, 6.9 µM (inactive); with HOP-92, 2.77 µM (inactive). The GI50 in the experiment with NCI-H522 was 1.6 µM (inactive).
Turning to `C=C1CC2[C@H](C)C(=O)CCC2(C)C2=C1C1CCC(C(C)CCC(=C)C(C)C(=O)O)C1(C)CC2=O` (some centres not stated), the GI50 with MDA-MB-231 was > 100 µM (inactive); in the experiment with DU-145, 53.1 µM (inactive); with NCI-H460, 34.4 µM (inactive); in the experiment with MDA-MB-435, 58.5 µM (inactive); in the experiment with T47D it was 41.6 µM (inactive); with Malme-3M, > 100 µM (inactive). In addition, the GI50 with HL-60 is 15.2 µM (inactive); in the experiment on UO-31 it was 30.9 µM (inactive); in the experiment with IGROV-1, 56.9 µM (inactive); in the experiment on SN12C, > 100 µM (inactive); in the experiment on Hs-578T, > 100 µM (inactive); with OVCAR-5, > 100 µM (inactive). For the same compound, the GI50 in the experiment with SF-295 is 62.5 µM (inactive); in the experiment on NCI-H23, 41.9 µM (inactive); in the experiment with UACC-257, 29.2 µM (inactive); in the experiment with HCT-15, 40.5 µM; with OVCAR-4 it was 48.4 µM (inactive); with HOP-92 it was 29.7 µM (inactive). Besides, the GI50 in the experiment on NCI-H522 is 47.1 µM (inactive).
On to `NC1=CN(Cc2ccccc2)C2=N/C(=C\c3ccccc3O)C(=O)N12`, for which the GI50 in the experiment on MDA-MB-231 was > 100 µM (inactive); in the experiment with DU-145 it was > 100 µM (inactive); in the experiment on NCI-H460, > 100 µM (inactive); in the experiment with MDA-MB-435, > 100 µM (inactive); in the experiment with T47D, 94.4 µM (inactive); with Malme-3M, > 100 µM (inactive). The GI50 was > 100 µM (inactive) in the experiment with HL-60; 70.3 µM (inactive) in the experiment on UO-31; > 100 µM (inactive) in the experiment with IGROV-1; > 100 µM (inactive) in the experiment on SN12C; > 100 µM (inactive) in the experiment with Hs-578T; > 100 µM (inactive) in the experiment with OVCAR-5. Further, the GI50 in the experiment with SF-295 is > 100 µM (inactive); in the experiment on NCI-H23, > 100 µM (inactive); with UACC-257, > 100 µM (inactive); in the experiment with HCT-15, > 100 µM; in the experiment with OVCAR-4, > 100 µM (inactive); in the experiment with HOP-92 it was > 100 µM (inactive). In addition, the GI50 with NCI-H522 was > 100 µM (inactive).
